Measured values as given in patent US20250041307A1, “Uses of Bicyclic Compounds for the Treatment of Diseases” (Athira Pharma, Inc., priority 2021, published 2025).

Legend:
[1] = system: MDCK cells; assay: Cell scattering behavior assay; type: cell-based; parameters: key: − indicates that the compound failed to significantly promote cell scattering behavior; + indicates maximum potency at or above 100 nM; ++ indicates maximum potency at or above 10 nM; +++ indicates maximum potency at or above 1 nM; ++++ indicates maximum potency at or above 0.1 nM; conditions: with 5 ng/mL HGF, 24 hours, normalized particle count compared to HGF treatment alone
Method in brief: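 MDCK cells starved 2 h in serum-free DMEM, then treated 24 h at 37 °C with compounds plus 5 ng/mL HGF. Cells were ethanol-fixed, WGA488-stained and imaged. Scattering was scored as particle count normalized to stained area, with activity taken as a statistical increase in normalized particle count over HGF alone.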

[2] = Parallel artificial membrane permeability assay (PAMPA); type: in vitro ADME; conditions: PBS, room temperature for 5 hours, 200 uM in donor well
Experimental: Bioavailable drugs must permeate the cellular membranes of the lining of the digestive tract. To estimate the penetrability of exemplary compounds, the in vitro parallel artificial membrane permeability assay (PAMPA) was utilized.
Test compounds must have a standard curve in the final read plate to determine partitioned concentration of each drug. A 6-point standard curve was prepared for each compound from 0 to 200 μM in phosphate-buffered saline (PBS).
Test compound solution (300 μL in PBS) was added to the donor (bottom) well of the PAMPA plate in 5 replicates and PBS vehicle (200 μL) was added to the acceptor (top) wells of appropriate wells to match the loading of the donor plate. The bottom and top of the PAMPA plates were then sandwiched together. The PAMPA plates were then incubated at room temperature for 5 hours. After incubation, 150 μL of donor solution was added to a UV compatible plate containing the corresponding standard curve. 150 μL of acceptor well solution was added adjacent to the corresponding standard curve and donor well samples for that compound. The plate was then read using a UV plate reader.
Permeability and membrane retention were then calculated based on the following formulas:
where: • A=filter area (0.3 cm^2); • VD=donor well volume (0.3 mL); • VA=acceptor well volume (0.2 mL); • t=incubation time (seconds); • CA(t)=compound concentration in acceptor well at time t; • CD(t)=compound concentration in donor well at time t; and
where: • CD(t), VD, CA(t), and VA are as defined for equation 1, and • C0=initial concentration in donor well (200 uM).

[3] = system: hepatocyte (HepG2) cell cultures; assay: Cytotoxicity assay (LDH release); type: cell-based; conditions: HepG2 cells, 48 hours, 0.1 to 100 μM
Experimental: This experiment was designed to obtain a preliminary assessment of cytotoxicity.
HepG2 cells were plated in 96-well cell culture plates and allowed to attach overnight at 37° C., 5% CO2 in EMEM+10% FBS. Treatments were made in complete media (EMEM+10% FBS) and included a dilution series of test compounds from 0.1 to 100 μM. Known cytotoxin cerivastatin was used as a positive assay control and prepared at a final concentration of 0.5 μM.
Growth media was replaced with treatment media (EMEM+10% FBS containing test compound dissolved in DMSO) and cells were incubated with test compounds for 48 hours. At the end of the incubation period, supernatant media from each well was transferred to a new plate and LDH assay working solution was added. LDH assay solution undergoes a colorimetric reaction in proportion to the amount of lactate dehydrogenase (an intracellular protein that was only found in the media in the presence of lysed cells) in the media. Color reaction was quantified by measurement of absorbance at a wavelength of 490 nm.
The signal range of the assay was determined by no manipulation in a negative control treatment and full lysis of all cells in a lysis control sample. Compounds that increase the level of cytotoxicity more than 20% above negative control samples were considered cytotoxic in this assay.

[4] = In vitro stability in simulated gastric and intestinal fluids; type: in vitro ADME; conditions: 37° C.; for SGF, compound remaining after 4 hours: simulated gastric fluid pH 1.2, 5 μM; for SGF + Enz, compound remaining after 4 hours: simulated gastric fluid with 3.2 mg/ml pepsin; for SGF + Enz, compound remaining after 4 hours / SIF, compound remaining after 4 hours: 5 μM; for SIF, compound remaining after 4 hours: simulated intestinal fluid pH 6.8 with 10 mg/ml pancreatin
Experimental: Bioavailability can be estimated by compound stability when exposed to conditions in the body. As an initial assessment of stability properties in a variety of conditions present in animals, exemplary compounds were tested for stability in a battery of simulated body compartments. Compounds were tested for stability in the following solutions: simulated gastric fluid (SGF: 34.2 mM NaCl, pH 1.2), simulated gastric fluid with the digestive enzyme pepsin (SGF+Enzyme: SGF with 3.2 mg/ml pepsin), simulated intestinal fluid with the mixture of enzymes in porcine pancreatin (SIF+Enzyme: 28.7 mM NaH2PO4, 105.7 mM NaCl, pH 6.8, 10 mg/ml pancreatin), rat plasma, and human plasma.
Test compounds were incubated at a final concentration of 5 μM in the above solutions at 37° C. with samples removed at the following time points: 0, 1, 2, and 4 hours. Reactions were stopped and prepared for quantification by addition of excess quench solution containing an internal standard (acetonitrile, 200 ng/mL bucetin). Test compound and internal standard in each sample was quantified by LC-MS/MS, and after internal normalization to bucetin, test compound concentration was expressed as a percentage of concentration at the 0-hour time point. Stability in the relevant test solution was then determined by the percent remaining at the 4-hour time point.

## CC1C(=O)N(CCC2CCC2)CC2N(C(=O)c3ccc(C(F)(F)F)cc3)CCC(=O)N12 (stereo not drawn) [Compound 20]
[1]
  Potency: +++ (+++ indicates maximum potency at or above 1 nM)
[2]
  Papp at 5 h, 200 uM: < 2 ×10⁻⁶ cm/s
[3]
  Cytotoxicity: ++++ (++++ indicates non-toxic at 100 μM)
[4]
  SGF, compound remaining after 4 hours: +++ (+++ indicates 80-99% compound remaining after 4 hours)
  SGF + Enz, compound remaining after 4 hours: +++ (+++ indicates 80-99% compound remaining after 4 hours)
  SIF, compound remaining after 4 hours: +++ (+++ indicates 80-99% compound remaining after 4 hours)

## CCC(C)CN1CC2N(C(=O)c3ccc(C(F)(F)F)c(Cl)c3)CCC(=O)N2C(C)C1=O (stereo not drawn) [Compound 12, 1-(3-chloro-4-(trifluoromethyl)benzoyl)-6-methyl-8-(2-methylbutyl)hexahydro-4H-pyrazino[1,2-a]pyrimidine-4,7(6H)-dione]
[1]
  Potency: ++ (++ indicates maximum potency at or above 10 nM)
[2]
  Papp at 5 h, 200 uM: < 2 ×10⁻⁶ cm/s
[3]
  Cytotoxicity: ++++ (++++ indicates non-toxic at 100 μM)
[4]
  SGF, compound remaining after 4 hours: +++ (+++ indicates 80-99% compound remaining after 4 hours)
  SGF + Enz, compound remaining after 4 hours: +++ (+++ indicates 80-99% compound remaining after 4 hours)
  SIF, compound remaining after 4 hours: ++ (++ indicates 40-79% compound remaining after 4 hours)

## CCC(C)CN1CC2N(C(=O)c3ccc(O)cc3)CCC(=O)N2[C@@H](C)C1=O (stereo partly drawn) [Compound 8a]
[1]
  Potency: +++ (+++ indicates maximum potency at or above 1 nM)
[2]
  Papp at 5 h, 200 uM: > 10 ×10⁻⁶ cm/s
[3]
  Cytotoxicity: ++++ (++++ indicates non-toxic at 100 μM)
[4]
  SGF, compound remaining after 4 hours: ++++ (++++ indicates 100% compound remaining after 4 hours)
  SGF + Enz, compound remaining after 4 hours: +++ (+++ indicates 80-99% compound remaining after 4 hours)
  SIF, compound remaining after 4 hours: +++ (+++ indicates 80-99% compound remaining after 4 hours)

## CCC(C)CN1CC2N(Cc3ccc(OC(F)F)cc3)CCC(=O)N2[C@@H](C)C1=O (stereo partly drawn) [Compound 6a]
[1]
  Potency: +++ (+++ indicates maximum potency at or above 1 nM)
[2]
  Papp at 5 h, 200 uM: < 2 ×10⁻⁶ cm/s
[3]
  Cytotoxicity: ++++ (++++ indicates non-toxic at 100 μM)
[4]
  SGF, compound remaining after 4 hours: +++ (+++ indicates 80-99% compound remaining after 4 hours)
  SGF + Enz, compound remaining after 4 hours: + (+ indicates 20-39% compound remaining after 4 hours)
  SIF, compound remaining after 4 hours: ++ (++ indicates 40-79% compound remaining after 4 hours)

## C=CCCN1CC2N(C(=O)c3ccc(C(F)(F)F)cc3)CCC(=O)N2C(C)C1=O (stereo not drawn) [Compound 22]
[1]
  Potency: ++ (++ indicates maximum potency at or above 10 nM)
[2]
  Papp at 5 h, 200 uM: < 2 ×10⁻⁶ cm/s
[3]
  Cytotoxicity: ++++ (++++ indicates non-toxic at 100 μM)
[4]
  SGF, compound remaining after 4 hours: +++ (+++ indicates 80-99% compound remaining after 4 hours)
  SGF + Enz, compound remaining after 4 hours: +++ (+++ indicates 80-99% compound remaining after 4 hours)
  SIF, compound remaining after 4 hours: +++ (+++ indicates 80-99% compound remaining after 4 hours)

## CCC(C)CN1CC2N(C(=O)c3ccc(F)cc3)CCC(=O)N2C(C)C1=O (stereo not drawn) [Compound 11, 1-(4-fluorobenzoyl)-6-methyl-8-(2-methylbutyl)hexahydro-4H-pyrazino[1,2-a]pyrimidine-4,7(6H)-dione]
[1]
  Potency: ++ (++ indicates maximum potency at or above 10 nM)
[2]
  Papp at 5 h, 200 uM: > 2 ×10⁻⁶ cm/s
[3]
  Cytotoxicity: ++++ (++++ indicates non-toxic at 100 μM)
[4]
  SGF, compound remaining after 4 hours: +++ (+++ indicates 80-99% compound remaining after 4 hours)
  SGF + Enz, compound remaining after 4 hours: +++ (+++ indicates 80-99% compound remaining after 4 hours)
  SIF, compound remaining after 4 hours: ++++ (++++ indicates 100% compound remaining after 4 hours)

## CCC(C)CN1CC2N(Cc3ccc(C(F)(F)F)cc3)CCC(=O)N2[C@@H](C)C1=O (stereo partly drawn) [Compound 5a]
[1]
  Potency: ++++ (++++ indicates maximum potency at or above 0.1 nM)
[2]
  Papp at 5 h, 200 uM: < 2 ×10⁻⁶ cm/s
[3]
  Cytotoxicity: ++++ (++++ indicates non-toxic at 100 μM)
[4]
  SGF, compound remaining after 4 hours: +++ (+++ indicates 80-99% compound remaining after 4 hours)
  SGF + Enz, compound remaining after 4 hours: + (+ indicates 20-39% compound remaining after 4 hours)
  SIF, compound remaining after 4 hours: +++ (+++ indicates 80-99% compound remaining after 4 hours)

## CCC(C)CN1CC2N(C(=O)c3ccc(C(F)(F)F)cc3)CCC(=O)N2[C@@H](C)C1=O (stereo partly drawn) [Compound 1a]
[1]
  Potency: ++++ (++++ indicates maximum potency at or above 0.1 nM)
[2]
  Papp at 5 h, 200 uM: > 2 ×10⁻⁶ cm/s
[3]
  Cytotoxicity: ++++ (++++ indicates non-toxic at 100 μM)
[4]
  SGF, compound remaining after 4 hours: ++++ (++++ indicates 100% compound remaining after 4 hours)
  SGF + Enz, compound remaining after 4 hours: ++++ (++++ indicates 100% compound remaining after 4 hours)
  SIF, compound remaining after 4 hours: ++++ (++++ indicates 100% compound remaining after 4 hours)

## CCC(C)CN1CC2N(C(=O)c3ccc(OC(F)F)cc3)CCC(=O)N2[C@@H](C)C1=O (stereo partly drawn) [Compound 2a]
[1]
  Potency: + (+ indicates maximum potency at or above 100 nM)
[2]
  Papp at 5 h, 200 uM: < 2 ×10⁻⁶ cm/s
[3]
  Cytotoxicity: ++++ (++++ indicates non-toxic at 100 μM)
[4]
  SGF, compound remaining after 4 hours: ++++ (++++ indicates 100% compound remaining after 4 hours)
  SGF + Enz, compound remaining after 4 hours: +++ (+++ indicates 80-99% compound remaining after 4 hours)
  SIF, compound remaining after 4 hours: ++++ (++++ indicates 100% compound remaining after 4 hours)

## CC1C(=O)N(CCC2CCCC2)CC2N(C(=O)c3ccc(C(F)(F)F)cc3)CCC(=O)N12 (stereo not drawn) [Compound 19]
[1]
  Potency: +++ (+++ indicates maximum potency at or above 1 nM)
[2]
  Papp at 5 h, 200 uM: < 2 ×10⁻⁶ cm/s
[3]
  Cytotoxicity: ++++ (++++ indicates non-toxic at 100 μM)
[4]
  SGF, compound remaining after 4 hours: +++ (+++ indicates 80-99% compound remaining after 4 hours)
  SGF + Enz, compound remaining after 4 hours: ++ (++ indicates 40-79% compound remaining after 4 hours)
  SIF, compound remaining after 4 hours: + (+ indicates 20-39% compound remaining after 4 hours)

## CCCCN1CC2N(C(=O)c3ccc(OC(F)F)cc3)CCC(=O)N2C(C)C1=O (stereo not drawn) [Compound 17]
[1]
  Potency: −
[2]
  Papp at 5 h, 200 uM: > 2 ×10⁻⁶ cm/s
[3]
  Cytotoxicity: ++++ (++++ indicates non-toxic at 100 μM)
[4]
  SGF, compound remaining after 4 hours: +++ (+++ indicates 80-99% compound remaining after 4 hours)
  SGF + Enz, compound remaining after 4 hours: +++ (+++ indicates 80-99% compound remaining after 4 hours)
  SIF, compound remaining after 4 hours: +++ (+++ indicates 80-99% compound remaining after 4 hours)

## CCC(C)CN1CC2N(Cc3ccc(O)nc3)CCC(=O)N2[C@@H](C)C1=O (stereo partly drawn) [Compound 7a]
[1]
  Potency: ++ (++ indicates maximum potency at or above 10 nM)
[2]
  Papp at 5 h, 200 uM: > 10 ×10⁻⁶ cm/s
[3]
  Cytotoxicity: ++++ (++++ indicates non-toxic at 100 μM)
[4]
  SGF, compound remaining after 4 hours: ++++ (++++ indicates 100% compound remaining after 4 hours)
  SGF + Enz, compound remaining after 4 hours: +++ (+++ indicates 80-99% compound remaining after 4 hours)
  SIF, compound remaining after 4 hours: ++ (++ indicates 40-79% compound remaining after 4 hours)
